Assay [1] has as its system RS4;11 (BCL-2 dependent acute lymphoblastic leukemia cell line). Put plainly: RS4;11 Cell Proliferation Assay. As to conditions: read-out: Cellular proliferation assay (IC50, nM) RS4. It is filed as cell-based. Here is the method: Biological Example: RS4;11 Cell Proliferation Assay
(§1) The BCL-2 dependent acute lymphoblastic leukemia (ALL) cell line, RS4;11, was used to study the cellular potency of BCL-2 inhibitors. The cells (ATCC, CRL-1873) were cultured in RPMI-1640 complete medium (RPMI-1640 medium, HEPES (Gibco, 22400-105) supplemented with 10% fetal bovine serum (FBS) (Gibco, 10099-1441), 100 unit/ml penicillin and 100 μg/ml streptomycin (Gibco, 15140122)) and maintained in a humidified chamber at 37° C. containing 5% CO2. Each compound was serially diluted with 1 μM as the maximum concentration. To test the apoptotic effect of the compounds, the cells were seeded at 50,000 in 180 μl per well in 96-well plates and treated with 10-point dilution series of each compound for 48 hrs at 37° C. Cell viability was assessed after the treatment using CellTiter-GLO luminescent assay (Promega) according to the manufacturer's recommendations. Briefly, 30 μl of CellTiter-GLO reagent was added into 200 μl of cell culture. Mixture was agitated on an orbital shaker for 5 min to ensure cell lysis followed by 7 min incubation at room temperature to allow development and stabilization of luminescent signals, which corresponded to the quantity of ATP and thus the quantity of metabolically active cells. Luminescent signals were measured using PHERAstar FS reader (BMG). Mean IC50 values were determined with GraphPad Prism software.

Assay [2] addresses Recombinant human Bcl-2 protein (Homo sapiens (Human), UniProt P10415). Put plainly: Bcl-2 TR-FRET Assay. It is filed as binding. To be noted: Bcl-2 wild type, TR-FRET; read-out: Biochemical assay (IC50, nM) Bcl-2 WT. An outline of the steps:
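In pH 7.5 phosphate buffer containing NaCl, EDTA, Tween-20 and BSA, 0.05 nM Bcl-2 saw serially diluted compound for 0.5 h before 0.5 nM FITC-Bak peptide was added. Signal ratio at 520/490 nm after 1 h yielded IC50.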

Assay [3] deals with recombinant human Bcl-2-G101V protein. The experiment in a line: Bcl-2-G101V TR-FRET Assay. As to conditions: ratio of biochemical IC50 Bcl-2 G101V / Bcl-2 WT. It is filed as binding. An outline of the steps:
(§2)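 Percent inhibition of the Bcl-2-G101V–ligand interaction was computed from the 490 nm to 520 nm emission ratio after 337 nm excitation, over increasing compound concentrations; a four-parameter logistic fit gave IC50.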
On the technique in general: In TR-FRET formats the signal depends on donor and acceptor labels being close together.

Assay [4] concerns the target recombinant human Bcl-2-G101V protein (Homo sapiens (Human), UniProt P10415, G101V). Put plainly: Bcl-2-G101V TR-FRET Assay. The class given is binding. To be noted: Bcl-2 G101V mutant, TR-FRET; read-out: Biochemical assay (IC50, nM) Bcl-2 G101V. A digest of the protocol:
as §2

Assay [5] concerns BCL-2 G101V knock-in cell line H96 (derive from RS4;11). The experiment in a line: Bcl 2-G101V Knock-In RS4;11 Cell Proliferation Assay. The class given is cell-based. As to conditions: Homo sapiens, RS4;11 Bcl-2 G101V knock-in clone H96, 48 hrs, CellTiter-GLO, read-out: Cellular proliferation assay (IC50, nM) RS4. On the procedure: Biological Example: Bcl 2-G101V Knock-In RS4;11 Cell Proliferation Assay
(1) RS4;11 H96 Bcl 2-G101V Knock-In Cell Line Generation
Briefly, RS4;11 BCL2-G101V knock-in cell pool was generated using Crisper/Cas9 gene editing system and the BCL2-G101V knock-in single clone H96 was picked from the knock-in cell pool and validated by WES (whole exome-sequencing) and RNA-seq.
The BCL-2 dependent acute lymphoblastic leukemia (ALL) cell line, RS4;11(ATCC, CRL-1873), was cultured in RPMI-1640 complete medium (RPMI-1640 medium, HEPES (Gibco, 22400-105) supplemented with 10% fetal bovine serum (FBS) (Gibco, 10099-1441), 100 unit/ml penicillin and 100 μg/ml streptomycin (Gibco, 15140122)) and maintained in a humidified chamber at 37° C. containing 5% CO2.
To obtain BCL2-G101V knock-in cell pool, RS4;11 was co-transfected with the Cas9-gRNA which also expressed GFP label, and the Donor gene which contained the BCL2-G101V mutant sequence. After 48 hrs of electroporation, the GFP positive cells were collected through FACSAriaIII cell sorting system. Cell pool was recovered for 3 days and then cultured under 2 nM ABT-199 stress for 4 weeks. […] Then cells were plated in 96 well U-plate with 1 cell/well for 10000 wells for single clone selection. After 3-5 weeks growing, clones were successively screened by PCR sequencing. And three BCL2-G101V knock-in clones: H96, H142 and H233, have been picked out.
Three clones were validated by genome DNA and cDNA(mRNA) PCR sequencing, and BCL-2, BCL-xL and MCL-1 expression using Western Blot. The H96 clone was also validated by WES (whole exome-sequencing) and RNA-seq.
(2) Bcl 2-G101V Knock-In RS4;11 Cell Proliferation Assay
as §1, with “G101V knock-in” for “dependent acute lymphoblastic leukemia (ALL)”, “line H96 (derive from RS4;11) were” for “line, RS4;11, was”, “cells” for “cells (ATCC, CRL-1873)”, “μM or 10 μM” for “μM”, “90” for “180”, “100” for “200”
In general terms: In ATP-based viability assays light output follows the ATP content of the culture.

The target of assay [6] is recombinant human Bcl-2 D103Y protein (Homo sapiens (Human), UniProt P10415, D103Y). The experiment in a line: Bcl-2-D103Y Biochemical Assay (TR-FRET). The class given is binding. On the procedure:
Biological Example: Bcl-2-D103Y Biochemical Assay
[…]. The TR-FRET signals (ex337 nm, em490 nm/520 nm) were read on BMG PHERAstar FSX instrument. The inhibition percentage of Bcl-2 D103Y interaction with its ligand in presence of increasing concentrations of compounds was calculated based on the ratio of fluorescence at 490 nm to that at 520 nm. The IC50 for each compound was derived from fitting the data to the four-parameter logistic equation by Dotmatics.

Where [7] appears, read: Homo sapiens, RS4-11, RS4;11 cells.

Structures are written as SMILES. Like-named read-outs stand apart in the source and are kept apart here.

Turning to `CC(C)c1ccccc1C1CN(C(C)c2ccccc2)CCN1C1CC2(CCN(c3ccc(C(=O)NS(=O)(=O)c4ccc(NC[C@H]5CC[C@](C)(O)CC5)c([N+](=O)[O-])c4)c(Oc4cnc5[nH]ccc5c4)c3)CC2)C1` (single isomer, unassigned) [Example 24a, 2-((1H-pyrrolo[2,3-b]pyridin-5-yl)oxy)-N-((4-((((1r,4r)-4-hydroxy-4-methylcyclohexyl)methyl)amino)-3-nitrophenyl)sulfonyl)-4-(2-(2-(2-isopropylphenyl)-4-(1-phenylethyl)piperazin-1-yl)-7-azaspiro[3.5]nonan-7-yl)benzamide], the IC50 in assay [1] (RS4;11 cells) turned out to be 3.4 nM; in assay [2], 0.37 nM; in assay [4] it was 6.9 nM. Further, the “Ratio of Bcl-2 G101V/WT” value in assay [3] stood at 18.6.
As to `CC(C)c1ccccc1C1CN(CC(C)(C)C)CCN1C1CC2(CCN(c3ccc(C(=O)NS(=O)(=O)c4ccc(NC[C@H]5CC[C@](C)(O)CC5)c([N+](=O)[O-])c4)c(Oc4cnc5[nH]ccc5c4)c3)CC2)C1` (stereo partly drawn) [Example 12, 2-((1H-pyrrolo[2,3-b]pyridin-5-yl)oxy)-N-((4-((((1r,4r)-4-hydroxy-4-methylcyclohexyl)methyl)amino)-3-nitrophenyl)sulfonyl)-4-(2-(2-(2-isopropylphenyl)-4-neopentylpiperazin-1-yl)-7-azaspiro[3.5]nonan-7-yl)benzamide], the IC50 in assay [5] was 40.5 nM; in assay [1] (setting [7]), 3 nM.
On to `COCCN1CCN(C2CC3(CCN(c4ccc(C(=O)NS(=O)(=O)c5ccc(NC[C@H]6CC[C@](C)(O)CC6)c([N+](=O)[O-])c5)c(Oc5cnc6[nH]ccc6c5)c4)CC3)C2)C(c2ccccc2C(C)C)C1` (stereo partly drawn) [Example 13, 2-((1H-pyrrolo[2,3-b]pyridin-5-yl)oxy)-N-((4-((((1r,4r)-4-hydroxy-4-methylcyclohexyl)methyl)amino)-3-nitrophenyl)sulfonyl)-4-(2-(2-(2-isopropylphenyl)-4-(2-methoxyethyl)piperazin-1-yl)-7-azaspiro[3.5]nonan-7-yl)benzamide], for which the IC50 was found to be 5.67 nM in assay [5] and 0.7 nM in assay [1] (setting [7]).
As for `CC(C)c1ccccc1C1CN(c2ccccc2)CCN1C1CC2(CCN(c3ccc(C(=O)NS(=O)(=O)c4ccc(NC[C@H]5CC[C@](C)(O)CC5)c([N+](=O)[O-])c4)c(Oc4cnc5[nH]ccc5c4)c3)CC2)C1` (stereo partly drawn) [Example 65, 2-((1H-pyrrolo[2,3-b]pyridin-5-yl)oxy)-N-((4-((((1r,4r)-4-hydroxy-4-methylcyclohexyl)methyl)amino)-3-nitrophenyl)sulfonyl)-4-(2-(2-(2-isopropylphenyl)-4-phenylpiperazin-1-yl)-7-azaspiro [3.5]nonan-7-yl)benzamide], the IC50 in assay [1] (setting [7]) is 5.9 nM; in assay [2], 0.86 nM; in assay [4], 54 nM. Besides, the “Ratio of Bcl-2 G101V/WT” value in assay [3] came out at 62.8.
Consider `COc1cc(CN2CCN(C3CC4(CCN(c5ccc(C(=O)NS(=O)(=O)c6ccc(NC[C@H]7CC[C@](C)(O)CC7)c([N+](=O)[O-])c6)c(Oc6cnc7[nH]cc(F)c7c6)c5)CC4)C3)[C@H](c3ccccc3C(C)C)C2)cc(C)c1OC` [Example 210, 4-(2-((R)-4-(3,4-dimethoxy-5-methylbenzyl)-2-(2-isopropylphenyl)piperazin-1-yl)-7-azaspiro[3.5]nonan-7-yl)-2-((3-fluoro-1H-pyrrolo[2,3-b]pyridin-5-yl)oxy)-N-((4-((((1r,4r)-4-hydroxy-4-methylcyclohexyl)methyl)amino)-3-nitrophenyl)sulfonyl)benzamide], for which the IC50 in assay [5] was 0.54 nM; in assay [1] (setting [7]), 0.12 nM.
For `COc1cc(CN2CCN(C3CC4(CCN(c5ccc(C(=O)NS(=O)(=O)c6ccc(NC[C@H]7CC[C@](C)(O)CC7)c([N+](=O)[O-])c6)c(Oc6cnc7[nH]ccc7c6)c5)CC4)C3)[C@H](c3ccccc3C(C)C)C2)ccc1Cl` [Example 276, 2-((1H-pyrrolo[2,3-b]pyridin-5-yl)oxy)-4-(2-((R)-4-(4-chloro-3-methoxybenzyl)-2-(2-isopropylphenyl)piperazin-1-yl)-7-azaspiro[3.5]nonan-7-yl)-N-((4-((((1r,4r)-4-hydroxy-4-methylcyclohexyl)methyl)amino)-3-nitrophenyl)sulfonyl)benzamide] the same measures were 0.71 nM and 0.15 nM.
As for `CC(C)c1ccccc1[C@@H]1CN(Cc2ccc(C3CCOC3)cc2)CCN1C1CC2(C1)CN(c1ccc(C(=O)NS(=O)(=O)c3ccc(NCC4CCC(C)(O)CC4)c([N+](=O)[O-])c3)c(Oc3cnc4[nH]cc(F)c4c3)c1)C2` (stereo partly drawn) [Example 371, 2-((3-fluoro-1H-pyrrolo[2,3-b]pyridin-5-yl)oxy)-N-((4-((((1r,4r)-4-hydroxy-4-methylcyclohexyl)methyl)amino)-3-nitrophenyl)sulfonyl)-4-(6-((2R)-2-(2-isopropylphenyl)-4-(4-(tetrahydrofuran-3-yl)benzyl)piperazin-1-yl)-2-azaspiro[3.3]heptan-2-yl)benzamide], the IC50 in assay [6] (TR-FRET, FITC labeled Bak peptide) turned out to be 0.31 nM; in assay [2] it was 0.12 nM; in assay [4], 0.32 nM. In assay [6] (ratio of IC50), the “Ratio of Bcl-2 D103Y/Bcl-2 WT” value is 2.6. Besides, the “Ratio of Bcl-2 G101V/WT” value in assay [3] is 2.7.

For the origin of these results see patent US20240376097A1, “BCL-2 Inhibitor” (BeiGene Ltd., priority 2020, published 2024).
